Conditions: Liquid, Brillouin light scattering

CCCCCCCC [octane]
Conditions | speed of sound [m/s]
296.97 K, 100 kPa | 1173
297.28 K, 4000 kPa | 1196.5
297.34 K, 7000 kPa | 1222
297.35 K, 12000 kPa | 1250.8
297.38 K, 10000 kPa | 1242.7
303.33 K, 7000 kPa | 1199.7
303.38 K, 10000 kPa | 1213.7
303.42 K, 12000 kPa | 1233
303.53 K, 4000 kPa | 1172.7
303.61 K, 100 kPa | 1151.7
318.11 K, 10000 kPa | 1164.8
318.3 K, 4000 kPa | 1121.2
318.35 K, 7000 kPa | 1141.4
318.37 K, 100 kPa | 1089.5
318.37 K, 12000 kPa | 1184.5
332.26 K, 4000 kPa | 1066.7
332.32 K, 10000 kPa | 1108.6
332.33 K, 7000 kPa | 1089.1
332.5 K, 100 kPa | 1029.1
332.56 K, 12000 kPa | 1128.3
347.29 K, 7000 kPa | 1031.9
347.37 K, 10000 kPa | 1053.4
347.4 K, 4000 kPa | 1007.2
347.46 K, 12000 kPa | 1072.7
347.68 K, 100 kPa | 970.1
362.12 K, 10000 kPa | 1006.2
362.17 K, 7000 kPa | 979.6
362.28 K, 4000 kPa | 955.4
362.53 K, 100 kPa | 912.3
363.67 K, 12000 kPa | 1027.8
377.03 K, 4000 kPa | 909.7
377.33 K, 7000 kPa | 933.5
377.35 K, 10000 kPa | 960.5
377.5 K, 100 kPa | 855.4
379.75 K, 12000 kPa | 973.9
390.8 K, 4000 kPa | 860.1
391 K, 7000 kPa | 892.3
391.09 K, 10000 kPa | 917.4
391.61 K, 100 kPa | 806.4
394.67 K, 12000 kPa | 920.8
403.71 K, 12000 kPa | 896.1
407.38 K, 4000 kPa | 802.1
407.45 K, 10000 kPa | 865.2
407.46 K, 7000 kPa | 836.9
412.59 K, 4000 kPa | 786.2
412.65 K, 7000 kPa | 818.8
412.71 K, 10000 kPa | 846.7
414.33 K, 12000 kPa | 864
422.61 K, 10000 kPa | 818.2
422.69 K, 12000 kPa | 844.3
422.73 K, 4000 kPa | 747.2
422.88 K, 7000 kPa | 784.5
431.77 K, 12000 kPa | 815.2
431.82 K, 4000 kPa | 720.1
431.88 K, 7000 kPa | 754.2
431.92 K, 10000 kPa | 789.8
442.23 K, 4000 kPa | 682.1
442.49 K, 7000 kPa | 723.8
442.65 K, 10000 kPa | 755.7
442.73 K, 12000 kPa | 779.7
452.55 K, 4000 kPa | 646.4
452.64 K, 7000 kPa | 689.9
452.77 K, 10000 kPa | 728.1
452.88 K, 12000 kPa | 750.8
462.37 K, 4000 kPa | 614.7
462.45 K, 7000 kPa | 660.1
462.61 K, 12000 kPa | 724.2
465.54 K, 10000 kPa | 695.8
472.05 K, 4000 kPa | 579.7
472.15 K, 7000 kPa | 631.6
472.28 K, 10000 kPa | 676.9
472.38 K, 12000 kPa | 693.8
482.98 K, 4000 kPa | 543
483.04 K, 7000 kPa | 599.7
483.12 K, 10000 kPa | 646.1
483.14 K, 12000 kPa | 672.7
493.41 K, 4000 kPa | 503.5
493.48 K, 7000 kPa | 565.4
493.62 K, 10000 kPa | 614.7
493.73 K, 12000 kPa | 645
502.54 K, 4000 kPa | 477.8
502.73 K, 7000 kPa | 537.1
502.95 K, 10000 kPa | 590.5
503.17 K, 12000 kPa | 616.5
513 K, 4000 kPa | 439.1
513.26 K, 7000 kPa | 506.5
513.46 K, 10000 kPa | 563.1
513.67 K, 12000 kPa | 591.5
522.92 K, 4000 kPa | 407.7
523.17 K, 12000 kPa | 570.6
523.46 K, 7000 kPa | 478.6
523.6 K, 10000 kPa | 533.3
532.23 K, 4000 kPa | 373.2
532.36 K, 7000 kPa | 450.6
532.59 K, 10000 kPa | 511.4
532.79 K, 12000 kPa | 545.1
537.4 K, 4000 kPa | 354.7
537.75 K, 7000 kPa | 436.8
538.1 K, 10000 kPa | 497.5
538.41 K, 12000 kPa | 530.4
542.87 K, 4000 kPa | 337.8
543.27 K, 12000 kPa | 520.1
543.83 K, 7000 kPa | 422
544.52 K, 10000 kPa | 483.1
546.68 K, 4000 kPa | 325.7
547.82 K, 7000 kPa | 406.8
548.6 K, 10000 kPa | 471.5
549.27 K, 12000 kPa | 505.4
550.42 K, 4000 kPa | 315.2
552.01 K, 7000 kPa | 398.1
552.52 K, 10000 kPa | 465.1
552.88 K, 12000 kPa | 500.8
557.27 K, 4000 kPa | 290.5
558.19 K, 7000 kPa | 380.2
558.64 K, 10000 kPa | 448
559.37 K, 12000 kPa | 486.2
561.2 K, 4000 kPa | 276.7
561.87 K, 7000 kPa | 372.6
562.27 K, 10000 kPa | 441.3
562.71 K, 12000 kPa | 477.8
566.82 K, 7000 kPa | 356.5
566.96 K, 10000 kPa | 430.4
567.01 K, 4000 kPa | 257.3
567.1 K, 12000 kPa | 471
570.16 K, 4000 kPa | 245.6
570.2 K, 7000 kPa | 347.6
570.48 K, 10000 kPa | 424
570.75 K, 12000 kPa | 461

From the NIST ThermoML archive (doi:10.1021/acs.jced.7b00712)
